From paper PMC8943153, “Inhibition of lung microbiota-derived proapoptotic peptides ameliorates acute exacerbation of pulmonary fibrosis” (Nature Communications, 2022)
Read-outs that look alike come from different tables or passages of the source. No end group written: not given here.

Tests used:
[1] = test system: putative serine protease in Staphylococcus nepalensis culture supernatant; assay type: biochemical
[2] = Half-life of corisin in vitro in a cell culture system; assay type: in vitro ADME, human; set-up: Corisin concentration in cell culture medium: unit not given here; settings: enzyme immunoassay; for Corisin concentration in cell culture medium: A549 culture, 10 µg/ml added
Experimental: We assessed the half-life of corisin in a cell culture system to determine the elimination rate of corisin from a solution in a cell culture system. A549 alveolar epithelial cells were cultured up to confluence in DMEM supplemented with 10% heat-inactivated FBS. The cells were then washed and cultured in FBS (−) DMEM. Corisin was then inoculated into the cell culture medium at a final concentration of 10 µg/ml, and the cell supernatant was sampled after 0, 1, 3, 6, 12, and 24 h. The concentration of corisin was measured by enzyme immunoassay, and the half-life of corisin was determined.

[3] = 0.1, 0.3, 1 mM, 0.5, 1 and 2 h at 37 °C, silver staining

CC(C)C[C@H](NC(=O)[C@H]1O[C@@H]1C(=O)O)C(=O)NCCCCN=C(N)N [E-64]
Inhibition ([1]; 0h, 3uM): 0 | Inhibition ([1]; 0h, 10uM): 0 | Inhibition ([1]; 0h, 30uM): 0 | Effect on transglycosylase degradation by S. nepalensis culture supernatant [1, 3]: neither E-64 nor EDTA suppressed | Inhibition ([1]; 0.5h, 3uM): 0 | Inhibition ([1]; 0.5h, 10uM): 0 | Inhibition ([1]; 0.5h, 30uM): 0 | Inhibition ([1]; 1h, 3uM): 0 | Inhibition ([1]; 1h, 10uM): 0 | Inhibition ([1]; 1h, 30uM): 0.2 | Inhibition ([1]; 2h, 3uM): 0 | Inhibition ([1]; 2h, 10uM): 0 | Inhibition ([1]; 2h, 30uM): 0.03

O=C(O)CN(CCN(CC(=O)O)CC(=O)O)CC(=O)O [EDTA, ethylenediaminetetraacetic acid]
Effect on transglycosylase degradation by S. nepalensis culture supernatant [1]: neither E-64 nor EDTA suppressed

Cl.NCCc1ccc(S(=O)(=O)F)cc1 [pefabloc SC]
Effect on transglycosylase degradation by S. nepalensis culture supernatant [1, 3]: suppress transglycosylase degradation

Cl.NCCc1ccc(S(=O)(=O)F)cc1 [pefabloc]
Inhibition ([1]; 0h, 0.1mM): 0 | Inhibition ([1]; 0h, 0.3mM): 0 | Inhibition ([1]; 0h, 1mM): 0 | Inhibition ([1]; 0.5h, 0.1mM): 53.32 | Inhibition ([1]; 0.5h, 0.3mM): 87.64 | Inhibition ([1]; 0.5h, 1mM): 98.7 | Inhibition ([1]; 1h, 0.1mM): 56.04 | Inhibition ([1]; 1h, 0.3mM): 90.52 | Inhibition ([1]; 1h, 1mM): 98.55 | Inhibition ([1]; 2h, 0.1mM): 52.92 | Inhibition ([1]; 2h, 0.3mM): 90.94 | Inhibition ([1]; 2h, 1mM): 99.04

IVMPESSGNPNAVNPAGYR [corisin]
Half-life in solution in a human alveolar cell culture system ([2]; 10 µg/ml in FBS(-) DMEM on A549 cells): < 60 min | Corisin concentration in cell culture medium ([2]; time 1 h): 3931.8 | Corisin concentration in cell culture medium ([2]; time 3 h): 2007.7 | Corisin concentration in cell culture medium ([2]; time 6 h): 1433.4 | Corisin concentration in cell culture medium ([2]; time 12 h): 1485.2 | Corisin concentration in cell culture medium ([2]; time 24 h): 1357.9 | half-life at 10 µg/ml ([2]; human, 10 µg/ml in FBS(-) DMEM on confluent A549 cells, sampled 0-24 h, exponential decay model, n = 4 per time point, read-out: Half-life in A549 epithelial cell culture medium (converted)): 42 min
